In ChEMBL document CHEMBL4371076 (J Med Chem, 2019):
The source made the active and inactive calls. The rule behind the calls is not given here.

Tests used:
[1] = Toxicity in CD1 mouse model of formalin-induced nociception assessed as prostration or sedation at 30 mg/kg, po; type: organism-based; details: in vivo
Mus musculus [2] = test: Analgesic activity in CD1 mouse model of formalin-induced nociception assessed as reduction in formalin-evoked paw flinching/licking response during first phase at 30 mg/kg, po pretreated for 30 mins followed by formalin treatment and measured during first 5 mins post formalin injection; type: functional, organism-based
[3] = Fraction unbound in mouse plasma; type: ADME, cell-free
[4] = Permeability of the compound at pH 5.5 by PAMPA; type: ADME; details: read-out: permeability
[5] = Fraction unbound in human plasma; type: ADME, cell-free
[6] = biological target: T1, Sodium channel protein type 9 subunit alpha (Mus musculus, UniProt Q62205); test: Inhibition of Nav1.7 in mouse DRG neurons at -70 mV holding potential by patch clamp electrophysiology method
T1 sequence (Q62205 whole entry): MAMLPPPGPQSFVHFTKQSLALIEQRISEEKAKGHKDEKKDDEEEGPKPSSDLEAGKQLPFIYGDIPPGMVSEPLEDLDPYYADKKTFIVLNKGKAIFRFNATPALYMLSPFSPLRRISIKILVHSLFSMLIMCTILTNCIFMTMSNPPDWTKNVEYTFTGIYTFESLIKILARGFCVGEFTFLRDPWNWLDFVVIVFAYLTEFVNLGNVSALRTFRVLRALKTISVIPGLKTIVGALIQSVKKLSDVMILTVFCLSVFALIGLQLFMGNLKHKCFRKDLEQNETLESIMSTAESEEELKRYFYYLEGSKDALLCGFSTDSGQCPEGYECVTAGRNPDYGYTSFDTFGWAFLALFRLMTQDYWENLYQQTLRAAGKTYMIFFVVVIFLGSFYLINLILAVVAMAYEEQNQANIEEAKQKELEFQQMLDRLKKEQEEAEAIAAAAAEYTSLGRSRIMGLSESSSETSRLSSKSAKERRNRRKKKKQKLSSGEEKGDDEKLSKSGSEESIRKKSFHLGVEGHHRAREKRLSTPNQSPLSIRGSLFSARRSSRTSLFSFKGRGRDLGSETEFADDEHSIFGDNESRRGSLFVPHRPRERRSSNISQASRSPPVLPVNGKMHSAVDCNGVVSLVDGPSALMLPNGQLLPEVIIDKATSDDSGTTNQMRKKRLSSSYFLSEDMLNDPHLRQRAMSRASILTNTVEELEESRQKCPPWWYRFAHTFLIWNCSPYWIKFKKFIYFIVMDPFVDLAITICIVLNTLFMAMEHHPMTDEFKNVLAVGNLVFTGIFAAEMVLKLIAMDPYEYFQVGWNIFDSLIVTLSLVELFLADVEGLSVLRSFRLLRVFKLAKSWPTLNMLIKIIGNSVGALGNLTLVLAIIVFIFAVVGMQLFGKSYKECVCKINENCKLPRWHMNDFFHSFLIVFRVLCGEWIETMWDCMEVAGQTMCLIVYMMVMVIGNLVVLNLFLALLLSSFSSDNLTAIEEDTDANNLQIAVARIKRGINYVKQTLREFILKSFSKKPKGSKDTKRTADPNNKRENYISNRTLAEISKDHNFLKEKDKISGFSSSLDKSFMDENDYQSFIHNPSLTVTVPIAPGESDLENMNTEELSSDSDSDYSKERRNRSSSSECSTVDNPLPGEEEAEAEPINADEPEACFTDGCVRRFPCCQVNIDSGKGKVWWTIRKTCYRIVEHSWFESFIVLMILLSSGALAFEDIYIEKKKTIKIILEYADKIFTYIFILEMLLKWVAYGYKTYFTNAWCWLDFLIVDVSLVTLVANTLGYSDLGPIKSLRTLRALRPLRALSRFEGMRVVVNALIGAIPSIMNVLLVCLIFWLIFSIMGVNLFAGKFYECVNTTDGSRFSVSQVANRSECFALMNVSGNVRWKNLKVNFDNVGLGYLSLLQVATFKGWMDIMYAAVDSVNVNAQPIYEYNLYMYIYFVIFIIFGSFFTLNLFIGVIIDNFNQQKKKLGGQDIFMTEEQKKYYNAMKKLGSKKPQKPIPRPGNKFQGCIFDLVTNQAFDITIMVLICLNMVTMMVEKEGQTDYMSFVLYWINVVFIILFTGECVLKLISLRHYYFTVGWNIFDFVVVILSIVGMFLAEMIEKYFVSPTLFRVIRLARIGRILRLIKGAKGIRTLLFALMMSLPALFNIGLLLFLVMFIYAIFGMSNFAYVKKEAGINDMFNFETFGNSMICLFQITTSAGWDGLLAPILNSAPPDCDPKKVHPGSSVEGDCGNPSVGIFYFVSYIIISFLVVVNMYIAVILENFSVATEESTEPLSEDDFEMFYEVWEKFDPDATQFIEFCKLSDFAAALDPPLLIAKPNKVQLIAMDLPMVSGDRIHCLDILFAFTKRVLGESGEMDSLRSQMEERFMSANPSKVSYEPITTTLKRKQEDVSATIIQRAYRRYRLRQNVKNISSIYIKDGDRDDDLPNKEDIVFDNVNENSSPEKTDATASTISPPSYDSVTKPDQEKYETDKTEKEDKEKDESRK

[7] = Permeability of the compound at pH 7.4 by PAMPA; type: ADME; details: read-out: permeability
Cytochrome P450 2C9 [8] = biological target: T2, Cytochrome P450 2C9 (Homo sapiens, UniProt P11712); test: Inhibition of CYP2C9 in human liver microsomes; type: ADME; details: human, microsomes
T2 sequence (P11712 whole entry): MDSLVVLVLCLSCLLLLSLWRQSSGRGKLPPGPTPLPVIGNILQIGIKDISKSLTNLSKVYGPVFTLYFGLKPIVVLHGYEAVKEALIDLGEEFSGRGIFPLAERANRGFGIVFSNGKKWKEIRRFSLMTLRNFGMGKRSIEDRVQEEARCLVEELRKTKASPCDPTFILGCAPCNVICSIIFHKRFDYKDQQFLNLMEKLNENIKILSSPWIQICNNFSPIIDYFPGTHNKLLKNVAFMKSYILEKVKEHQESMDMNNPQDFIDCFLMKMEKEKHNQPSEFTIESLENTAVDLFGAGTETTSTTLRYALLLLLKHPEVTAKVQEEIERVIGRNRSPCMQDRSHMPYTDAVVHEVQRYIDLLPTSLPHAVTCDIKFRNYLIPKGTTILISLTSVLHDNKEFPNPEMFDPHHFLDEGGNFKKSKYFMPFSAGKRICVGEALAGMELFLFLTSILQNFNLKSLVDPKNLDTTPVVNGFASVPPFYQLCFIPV

[9] = Unbound plasma concentration in CD1 mouse model of formalin-induced nociception at 30 mg/kg, po; type: ADME, organism-based; details: in vivo
Cytochrome P450 3A4 [10] = biological target: T3, Cytochrome P450 3A4 (Homo sapiens, UniProt P08684); test: Inhibition of CYP3A4 in human liver microsomes; type: ADME; details: human, microsomes
Cytochrome P450 2C19 [11] = biological target: T4, Cytochrome P450 2C19 (Homo sapiens, UniProt P33261); test: Inhibition of CYP2C19 in human liver microsomes; type: ADME; details: human, microsomes
T4 sequence (P33261 whole entry): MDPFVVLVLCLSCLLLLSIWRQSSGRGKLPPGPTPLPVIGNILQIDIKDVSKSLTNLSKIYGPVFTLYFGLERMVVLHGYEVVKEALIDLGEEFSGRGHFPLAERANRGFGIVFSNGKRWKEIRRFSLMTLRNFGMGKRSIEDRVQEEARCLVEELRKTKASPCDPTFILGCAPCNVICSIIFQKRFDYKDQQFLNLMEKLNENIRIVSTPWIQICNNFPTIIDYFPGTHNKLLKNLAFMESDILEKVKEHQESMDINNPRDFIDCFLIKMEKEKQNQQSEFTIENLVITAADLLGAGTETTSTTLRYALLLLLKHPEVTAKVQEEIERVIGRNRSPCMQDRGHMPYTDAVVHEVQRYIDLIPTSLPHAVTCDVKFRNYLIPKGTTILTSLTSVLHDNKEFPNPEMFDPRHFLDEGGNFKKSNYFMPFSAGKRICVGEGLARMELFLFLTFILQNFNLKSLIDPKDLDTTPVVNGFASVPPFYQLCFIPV

Cytochrome P450 2C8 [12] = biological target: T5, Cytochrome P450 2C8 (Homo sapiens, UniProt P10632); test: Inhibition of CYP2C8 in human liver microsomes; type: ADME; details: human, microsomes
T5 sequence (P10632 whole entry): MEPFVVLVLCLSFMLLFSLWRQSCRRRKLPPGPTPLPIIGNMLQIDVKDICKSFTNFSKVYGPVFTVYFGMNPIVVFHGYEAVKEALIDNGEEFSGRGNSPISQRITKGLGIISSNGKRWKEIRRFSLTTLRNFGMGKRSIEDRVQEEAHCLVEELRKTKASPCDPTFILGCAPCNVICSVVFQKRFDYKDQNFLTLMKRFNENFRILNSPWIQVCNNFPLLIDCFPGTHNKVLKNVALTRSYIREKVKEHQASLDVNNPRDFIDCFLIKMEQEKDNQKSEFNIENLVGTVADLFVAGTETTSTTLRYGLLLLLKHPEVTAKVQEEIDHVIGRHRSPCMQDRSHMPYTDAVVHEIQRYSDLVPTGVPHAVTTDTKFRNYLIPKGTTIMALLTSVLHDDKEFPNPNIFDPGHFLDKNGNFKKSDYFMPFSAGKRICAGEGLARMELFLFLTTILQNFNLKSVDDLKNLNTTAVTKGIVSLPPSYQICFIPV

Cytochrome P450 2D6 [13] = biological target: T6, Cytochrome P450 2D6 (Homo sapiens, UniProt P10635); test: Time-dependant inhibition of CYP2D6 in human liver microsomes; type: ADME
[14] = Efflux ratio of permeability in human Caco2 cells; type: ADME, cell-based; details: Caco-2
Mus musculus [15] = test: Analgesic activity in CD1 mouse model of formalin-induced nociception assessed as reduction in formalin-evoked paw flinching/licking response during second phase at 30 mg/kg, po pretreated for 30 mins followed by formalin treatment and measured during 15 to 45 mins post formalin injection; type: functional, organism-based
[16] = biological target: T1, Sodium channel protein type 9 subunit alpha; test: Inhibition of recombinant mouse Nav1.7 expressed in HEK293 cells at -70 mV holding potential by patch clamp electrophysiology method; type: cell-based
[17] = Permeability from basolateral to apical side in human Caco2 cells; type: ADME, cell-based; details: Caco-2, read-out: permeability
[18] = biological target: T7, Sodium channel protein type 9 subunit alpha (Homo sapiens, UniProt Q15858); test: Inhibition of recombinant human Nav1.7 expressed in HEK293 cells at -70 mV holding potential by patch clamp electrophysiology method; type: cell-based
T7 sequence (Q15858 whole entry): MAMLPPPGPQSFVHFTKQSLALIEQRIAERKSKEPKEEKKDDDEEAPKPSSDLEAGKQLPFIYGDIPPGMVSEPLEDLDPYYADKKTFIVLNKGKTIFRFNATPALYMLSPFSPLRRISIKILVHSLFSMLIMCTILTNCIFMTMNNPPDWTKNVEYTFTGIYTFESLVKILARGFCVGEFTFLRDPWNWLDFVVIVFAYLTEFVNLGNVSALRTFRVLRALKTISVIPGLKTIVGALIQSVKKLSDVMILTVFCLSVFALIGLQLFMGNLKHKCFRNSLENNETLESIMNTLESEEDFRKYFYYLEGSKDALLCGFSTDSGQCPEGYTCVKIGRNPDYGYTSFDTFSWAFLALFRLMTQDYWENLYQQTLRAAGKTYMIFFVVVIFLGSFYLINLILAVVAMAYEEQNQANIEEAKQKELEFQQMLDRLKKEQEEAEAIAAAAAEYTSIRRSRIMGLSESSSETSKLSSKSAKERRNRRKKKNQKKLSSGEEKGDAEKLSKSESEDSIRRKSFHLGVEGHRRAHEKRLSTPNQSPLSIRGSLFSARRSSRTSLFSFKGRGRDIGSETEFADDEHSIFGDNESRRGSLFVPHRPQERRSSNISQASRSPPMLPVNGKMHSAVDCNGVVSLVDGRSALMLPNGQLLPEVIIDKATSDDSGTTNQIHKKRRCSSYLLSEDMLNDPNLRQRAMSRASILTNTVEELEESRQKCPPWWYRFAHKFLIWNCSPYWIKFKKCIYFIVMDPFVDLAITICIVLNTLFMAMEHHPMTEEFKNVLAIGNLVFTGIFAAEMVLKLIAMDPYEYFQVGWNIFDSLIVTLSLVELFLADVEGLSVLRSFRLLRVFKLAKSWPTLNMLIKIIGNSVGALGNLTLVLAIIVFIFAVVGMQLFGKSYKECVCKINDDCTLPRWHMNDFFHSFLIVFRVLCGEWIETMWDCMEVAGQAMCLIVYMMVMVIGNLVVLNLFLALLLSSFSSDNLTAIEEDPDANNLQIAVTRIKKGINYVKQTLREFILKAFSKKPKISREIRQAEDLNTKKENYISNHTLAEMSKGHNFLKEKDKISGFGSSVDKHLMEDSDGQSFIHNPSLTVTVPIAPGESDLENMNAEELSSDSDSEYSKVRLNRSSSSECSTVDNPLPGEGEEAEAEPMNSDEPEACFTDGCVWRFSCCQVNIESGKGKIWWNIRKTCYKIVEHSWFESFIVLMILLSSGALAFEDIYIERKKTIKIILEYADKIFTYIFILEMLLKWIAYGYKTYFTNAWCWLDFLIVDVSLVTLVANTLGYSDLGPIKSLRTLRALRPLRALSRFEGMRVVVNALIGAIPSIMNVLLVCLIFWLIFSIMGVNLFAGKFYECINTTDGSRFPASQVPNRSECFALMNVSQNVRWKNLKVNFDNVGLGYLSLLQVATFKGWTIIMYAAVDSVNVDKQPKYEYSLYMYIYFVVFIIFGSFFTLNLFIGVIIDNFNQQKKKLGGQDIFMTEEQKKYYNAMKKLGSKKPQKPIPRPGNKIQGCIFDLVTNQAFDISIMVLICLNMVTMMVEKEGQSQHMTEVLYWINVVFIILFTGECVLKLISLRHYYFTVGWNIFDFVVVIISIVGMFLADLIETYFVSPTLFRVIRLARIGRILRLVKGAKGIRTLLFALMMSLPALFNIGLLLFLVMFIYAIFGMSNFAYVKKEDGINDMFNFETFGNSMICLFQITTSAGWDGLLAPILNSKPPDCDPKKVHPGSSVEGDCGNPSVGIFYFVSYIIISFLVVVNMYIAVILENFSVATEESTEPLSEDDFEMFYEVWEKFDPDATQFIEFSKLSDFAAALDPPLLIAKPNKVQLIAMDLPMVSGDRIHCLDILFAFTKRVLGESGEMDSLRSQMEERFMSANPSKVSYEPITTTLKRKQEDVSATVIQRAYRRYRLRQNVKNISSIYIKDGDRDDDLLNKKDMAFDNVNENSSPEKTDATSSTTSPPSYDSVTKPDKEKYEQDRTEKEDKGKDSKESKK

[19] = Plasma concentration in CD1 mouse model of formalin-induced nociception at 30 mg/kg, po; type: ADME, organism-based; details: read-out: Cp, in vivo
[20] = Toxicity in CD1 mouse model of formalin-induced nociception assessed as hypothermia at 30 mg/kg, po; type: organism-based; details: in vivo
[21] = Metabolic stability in human liver microsomes assessed as parent compound remaining at 0.5 uM after 10 mins; type: ADME, Microsome; details: read-out: Stability
Cytochrome P450 2C8 [22] = biological target: T5, Cytochrome P450 2C8; test: Time-dependant inhibition of CYP2C8 in human liver microsomes; type: ADME
Cytochrome P450 2C19 [23] = biological target: T4, Cytochrome P450 2C19; test: Time-dependant inhibition of CYP2C19 in human liver microsomes; type: ADME
Cytochrome P450 2D6 [24] = biological target: T6, Cytochrome P450 2D6; test: Inhibition of CYP2D6 in human liver microsomes; type: ADME; details: human, microsomes
[25] = Metabolic stability in rat liver microsomes assessed as parent compound remaining at 0.5 uM after 10 mins; type: ADME, Microsome; details: read-out: Stability
Cytochrome P450 2B6 [26] = biological target: T8, Cytochrome P450 2B6 (Homo sapiens, UniProt P20813); test: Inhibition of CYP2B6 in human liver microsomes; type: ADME; details: human, microsomes
T8 sequence (P20813 whole entry): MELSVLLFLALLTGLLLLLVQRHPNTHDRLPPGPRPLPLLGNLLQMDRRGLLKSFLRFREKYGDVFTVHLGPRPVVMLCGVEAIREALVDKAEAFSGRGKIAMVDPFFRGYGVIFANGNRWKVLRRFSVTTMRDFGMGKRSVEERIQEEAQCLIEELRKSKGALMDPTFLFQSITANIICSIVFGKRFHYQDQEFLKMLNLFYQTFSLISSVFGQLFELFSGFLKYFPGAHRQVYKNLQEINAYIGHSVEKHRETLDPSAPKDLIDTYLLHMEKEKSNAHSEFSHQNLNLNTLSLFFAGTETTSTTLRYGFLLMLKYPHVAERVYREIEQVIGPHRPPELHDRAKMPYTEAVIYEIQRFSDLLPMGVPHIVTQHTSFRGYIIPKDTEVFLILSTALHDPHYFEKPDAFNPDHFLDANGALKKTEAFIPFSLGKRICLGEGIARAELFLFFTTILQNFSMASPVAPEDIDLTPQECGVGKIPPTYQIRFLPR

Cytochrome P450 2C9 [27] = biological target: T2, Cytochrome P450 2C9; test: Time-dependant inhibition of CYP2C9 in human liver microsomes; type: ADME
Cytochrome P450 3A4 [28] = biological target: T3, Cytochrome P450 3A4; test: Time-dependant inhibition of CYP3A4 in human liver microsomes; type: ADME
[29] = Permeability from apical to basolateral side in human Caco2 cells; type: ADME, cell-based; details: Caco-2, read-out: permeability
Cytochrome P450 2B6 [30] = biological target: T8, Cytochrome P450 2B6; test: Time-dependant inhibition of CYP2B6 in human liver microsomes; type: ADME
[31] = Metabolic stability in mouse liver microsomes assessed as parent compound remaining at 0.5 uM after 10 mins; type: ADME, Microsome; details: read-out: Stability
[32] = Unbound drug level in DRG neurons of CD1 mouse model of formalin-induced nociception at 30 mg/kg, po; type: ADME, organism-based, DRG neuron; details: in vivo
[33] = Drug uptake in DRG neurons of CD1 mouse model of formalin-induced nociception at 30 mg/kg, po; type: ADME, organism-based, DRG neuron; details: in vivo, read-out: Drug uptake
[34] = biological target: T7, Sodium channel protein type 9 subunit alpha; test: Inhibition of human Nav1.7 expressed in HEK293 cells after 600 secs at -60 mV holding potential by ion works barracuda population patch clamp method; type: cell-based
[35] = biological target: Sodium channel protein type 5 subunit alpha (Homo sapiens, UniProt Q14524); test: Inhibition of human Nav1.5 expressed in HEK293 cells after 600 secs at -50 mV holding potential by ion works barracuda population patch clamp method; type: cell-based

| Compound | Activity [1] | Activity (Mus musculus [2]) | fraction unbound [3] | Papp [4] [×10⁻⁶ cm/s] | fraction unbound [5] | Papp [7] [×10⁻⁶ cm/s] | inhibition (INH) (Cytochrome P450 2C9 [8]) | Cp(f) [9] [µM] | inhibition (INH) (Cytochrome P450 3A4 [10]) | inhibition (INH) (Cytochrome P450 2C19 [11]) | inhibition (INH) (Cytochrome P450 2C8 [12]) | TDI (Cytochrome P450 2D6 [13]) | efflux ratio [14] | Activity (Mus musculus [15]) | IC50 [16] [nM] | Papp B→A [17] [×10⁻⁶ cm/s] | IC50 [18] [nM] | concentration [19] [µM] | Activity [20] | remaining at 10 min, 0.5 µM [21] [%] | further results |
| --- | --- | --- | --- | --- | --- | --- | --- | --- | --- | --- | --- | --- | --- | --- | --- | --- | --- | --- | --- | --- | --- |
| Cn1cc(-c2ccc(C(F)(F)F)cc2)c2cc(F)c(C(=O)NS(=O)(=O)C3CC3)cc21 | Non-Toxic | inactive | 0.0035 | 166 | 0.0025 | 32.3 | Not Active | 0.49 | Not Active | Not Active | Not Active | Not Active | 1.9 | inactive | 27 | 8.6 | 5 | 140 | Non-Toxic | 100 | IC50 [6]: 5 nM; TDI (Cytochrome P450 2C8 [22]): Not Active; TDI (Cytochrome P450 2C19 [23]): Not Active; inhibition (INH) (Cytochrome P450 2D6 [24]): Not Active; remaining at 10 min, 0.5 µM [25]: 100%; inhibition (INH) (Cytochrome P450 2B6 [26]): Not Active; TDI (Cytochrome P450 2C9 [27]): Not Active; TDI (Cytochrome P450 3A4 [28]): Not Active; Papp A→B [29]: 4.6 ×10⁻⁶ cm/s; TDI (Cytochrome P450 2B6 [30]): Not Active |
| Cn1cc(-c2ccc(C(F)F)cc2)c2cc(F)c(C(=O)NS(=O)(=O)C3CC3)cc21 | Non-Toxic | inactive | 0.007 | 32.5 | 0.003 | 6 | Not Active | 1.211 | Not Active | Not Active | Not Active | Not Active | 2.4 | inactive | 231 | 19.5 | 12 | 173 | Non-Toxic | 93 | remaining at 10 min, 0.5 µM [31]: 86%; IC50 [6]: 12 nM; TDI (Cytochrome P450 2C8 [22]): Not Active; TDI (Cytochrome P450 2C19 [23]): Not Active; inhibition (INH) (Cytochrome P450 2D6 [24]): Not Active; remaining at 10 min, 0.5 µM [25]: 82%; inhibition (INH) (Cytochrome P450 2B6 [26]): Not Active; TDI (Cytochrome P450 2C9 [27]): Not Active; TDI (Cytochrome P450 3A4 [28]): Not Active; Papp A→B [29]: 8.1 ×10⁻⁶ cm/s; TDI (Cytochrome P450 2B6 [30]): Not Active |
| O=S(=O)(Nc1nccs1)c1cc(Cl)c(NCC23CCCN2CCC3)cc1F | – | inactive | – | – | – | – | – | 0.34 | – | – | – | – | – | – | – | – | – | 1.4 | – | – | Drug uptake(free) [32]: 340 nM; concentration [33]: 0.34 µM |
| CC(C)COc1ccc(-c2cn(C)c3cc(C(=O)NS(=O)(=O)C4CC4)c(F)cc23)cn1 | Non-Toxic | inactive | 0.006 | 85.1 | 0.024 | 25.4 | Not Active | 0.792 | Not Active | Not Active | Not Active | Not Active | 1.6 | inactive | 37 | 18.9 | 19 | 132 | Non-Toxic | 100 | remaining at 10 min, 0.5 µM [31]: 98%; IC50 [6]: 24 nM; TDI (Cytochrome P450 2C8 [22]): Not Active; TDI (Cytochrome P450 2C19 [23]): Not Active; inhibition (INH) (Cytochrome P450 2D6 [24]): Not Active; remaining at 10 min, 0.5 µM [25]: 78%; inhibition (INH) (Cytochrome P450 2B6 [26]): Not Active; TDI (Cytochrome P450 2C9 [27]): Not Active; TDI (Cytochrome P450 3A4 [28]): Not Active; Papp A→B [29]: 12 ×10⁻⁶ cm/s; TDI (Cytochrome P450 2B6 [30]): Not Active |
| CC(C)COc1ncc(-c2cn(C)c3cc(C(=O)NS(=O)(=O)C4CC4)c(F)cc23)cc1Cl | Non-Toxic | inactive | 0.002 | 33.5 | < 0.001 | 31 | Not Active | 0.116 | Not Active | Not Active | Not Active | Not Active | 3 | inactive | 10 | 10.2 | 3.3 | 58 | Non-Toxic | 100 | remaining at 10 min, 0.5 µM [31]: 100%; IC50 [34]: 230 nM; concentration [33]: 11 µM; TDI (Cytochrome P450 2C8 [22]): Not Active; TDI (Cytochrome P450 2C19 [23]): Not Active; inhibition (INH) (Cytochrome P450 2D6 [24]): Not Active; IC50 [35]: 5100 nM; remaining at 10 min, 0.5 µM [25]: 37%; inhibition (INH) (Cytochrome P450 2B6 [26]): Not Active; TDI (Cytochrome P450 2C9 [27]): Not Active; TDI (Cytochrome P450 3A4 [28]): Not Active; Papp A→B [29]: 3.4 ×10⁻⁶ cm/s; TDI (Cytochrome P450 2B6 [30]): Not Active |
